Where a SMILES comes first, the peptide text is derived from it.

Data set [1] relates to Scopolamin-induzierte Amnesie. As to the kind of experiment: radial-maze test (8-arm radial maze), reversal of scopolamine-induced amnesia. The class given is in vivo, Ratten. Particulars: Rattus norvegicus, po, rats, comparison compound, read-out: MED (minimal effektive Dosis). An excerpt:
(§1) Die erfindungsgemäße Verbindung ist aufgrund ihrer pharmakologischen Eigenschaften für die Behandlung cognitiver Dysfunktionen unterschiedlicher Genese, wie sie z.B. bei der Alzheimer'schen Krankheit oder der senilen Demenz auftreten, geeignet. Die Verbesserung cognitiver Funktionen durch die erfindungsgemäßen Verbindungen (nootrope Wirkung) wurde im Tierexperiment an Mäusen mittels des inhibitory (passive) avoidance-Tests (step-through-Modell) und an Ratten mittels des radial-maze-Tests (8-armiger radialer Irrgarten) geprüft. Es handelt sich hierbei um literaturbeschriebene Standardtests zur Prüfung von Lern-und Gedächtnisfunktionen im Tierexperiment. (Inhibitory avoidance J. Bures, O. Buresova und J. Huston in "Techniques and Basic Experiments for the Study of Brain and Behavior", Elsevier Scientific Publishers, Amsterdam 1983; Radial Maze: U. Stäubli, M. Baudry und G. Lynch, Behavioral and Neural Biology 40, 58-69 (1984).)
(§2) Entsprechend den genannten Literaturangaben wird eine Substanz dann als nootrop wirksam bezeichnet, wenn sie bei den Versuchstieren der durch Scopolamin, Elektroschock oder Inhibitoren der Proteinsynthese induzierte Erhöhung der Fehlerrate in diesen Tests entgegenwirkt oder sie gar aufzuheben vermag.
(§3) Die Versuche wurden nach den obenbeschriebenen Testverfahren durchgeführt. […]

Data set [2] deals with Scopolamin-induzierte Amnesie. The data set can be described thus: inhibitory (passive) avoidance test (step-through model), reversal of scopolamine-induced amnesia. The class given is in vivo, Mäusen. Particulars: Mus musculus, po, mice, comparison compound, read-out: MED (minimal effektive Dosis).
From the text: as §1, §2, §3

Data set [3] is described as follows: stability in water at 80°C for 8 days, checked by HPLC. The class given is physicochemical. Particulars: 200 mg in 20 ml water, 8 days at 80°C, freeze-dried, HPLC detection at 220 nm. Here is the method:
• a) 200 mg Ac-Met(O₂)-Glu-His-Phe-D-Lys-Phe-NH(CH₂)₈-NH₂ · 2 CH₃COOH wurden in 20 ml Wasser gelöst und 8 Tage auf 80°C erhitzt. Nach dem Abkühlen wurde gefriergetrocknet.

For `NC(=O)CN1CCCC1=O` [Piracetam, 2-Oxo-1-pyrrolidinylessigsäureamid], the minimal effective dose in data set [1] and in data set [2] was 500 to 1000 mg/kg in each case.

Regarding `CS(=O)(=O)CC[C@H](N)C(=O)N[C@@H](CCC(=O)O)C(=O)N[C@@H](Cc1c[nH]cn1)C(=O)N[C@@H](Cc1ccccc1)C(=O)N[C@H](CCCCN)C(=O)N[C@@H](Cc1ccccc1)C(=O)NCCCCCCCCN` [H-Met(O₂)-Glu-His-Phe-D-Lys-Phe-NH-(CH₂)₈-NH₂] (HELM PEPTIDE1{[CS(=O)(=O)CC[C@H](N)C(=O)[*:2]].E.H.F.[dK].F.[NCCCCCCCCN[*:1]]}$$$$V2.0), in data set [3], the “Zersetzung (HPLC-Untersuchung)” value is recorded as “starke Zersetzung”.

As for `CC(=O)N[C@@H](CCS(C)(=O)=O)C(=O)N[C@@H](CCC(=O)O)C(=O)N[C@@H](Cc1c[nH]cn1)C(=O)N[C@@H](Cc1ccccc1)C(=O)N[C@H](CCCCN)C(=O)N[C@@H](Cc1ccccc1)C(=O)NCCCCCCCCN` [Ac-Met(O₂)-Glu-His-Phe-D-Lys-Phe-NH-(CH₂)₈-NH₂ · 2 CH₃COOH] (HELM PEPTIDE1{[ac].[CS(=O)(=O)CC[C@H](N[*:1])C(=O)[*:2]].E.H.F.[dK].F.[NCCCCCCCCN[*:1]]}$$$$V2.0), the “Zersetzung (HPLC-Untersuchung)” value in data set [3] is reported as “keine Zersetzung”.
